The NIST ThermoML archive (doi:10.1021/je500381c)
± gives the expanded uncertainty stated by the source.

Experiment: xn = mol fraction of the nth substance listed
Conditions: 100 kPa, Liquid; for mass density: Vibrating tube method

CC12CC3CC(C)(C1)CC(C)(C3)C2 [1,3,5-trimethyladamantane] + OCC1CCCCC1
Conditions | mass density, 313.15 K [kg/m3] | mass density, 318.15 K [kg/m3] | mass density, 323.15 K [kg/m3] | mass density, 328.15 K [kg/m3] | mass density, 333.15 K [kg/m3] | viscosity, 313.15 K [mPa·s] | viscosity, 318.15 K [mPa·s] | viscosity, 323.15 K [mPa·s] | viscosity, 328.15 K [mPa·s] | viscosity, 333.15 K [mPa·s]
x2 = 0 | – | 869.86 ± 0.13 | 866.31 ± 0.13 | 862.76 ± 0.13 | 859.2 ± 0.14 | 1.765 ± 0.028 | 1.621 ± 0.025 | 1.494 ± 0.024 | 1.384 ± 0.022 | 1.284 ± 0.021
x2 = 0.1 | – | 871.69 ± 0.13 | 868.04 ± 0.13 | 864.39 ± 0.14 | 860.72 ± 0.14 | 1.878 ± 0.029 | 1.71 ± 0.027 | 1.564 ± 0.025 | 1.435 ± 0.023 | 1.322 ± 0.021
x2 = 0.2001 | – | 874.3 ± 0.13 | 870.63 ± 0.13 | 866.94 ± 0.14 | 863.23 ± 0.14 | 2.1 ± 0.033 | 1.898 ± 0.03 | 1.723 ± 0.027 | 1.569 ± 0.025 | 1.436 ± 0.023
x2 = 0.2997 | – | 877.27 ± 0.13 | 873.58 ± 0.13 | 869.86 ± 0.14 | 866.13 ± 0.14 | 2.402 ± 0.038 | 2.151 ± 0.034 | 1.936 ± 0.03 | 1.752 ± 0.027 | 1.59 ± 0.025
x2 = 0.4 | – | 880.63 ± 0.13 | 876.93 ± 0.13 | 873.2 ± 0.14 | 869.45 ± 0.14 | 2.811 ± 0.044 | 2.494 ± 0.039 | 2.224 ± 0.035 | 1.994 ± 0.031 | 1.797 ± 0.028
x2 = 0.4994 | 888.09 ± 0.13 | 884.4 ± 0.13 | 880.69 ± 0.13 | 876.94 ± 0.14 | 873.17 ± 0.14 | 3.371 ± 0.053 | 2.954 ± 0.046 | 2.604 ± 0.041 | 2.311 ± 0.036 | 2.061 ± 0.032
x2 = 0.5991 | 892.35 ± 0.13 | 888.66 ± 0.13 | 884.94 ± 0.13 | 881.18 ± 0.13 | 877.4 ± 0.14 | 4.181 ± 0.065 | 3.609 ± 0.057 | 3.14 ± 0.049 | 2.751 ± 0.043 | 2.426 ± 0.038
x2 = 0.7 | 897.2 ± 0.13 | 893.49 ± 0.13 | 889.76 ± 0.13 | 885.99 ± 0.13 | 882.2 ± 0.14 | 5.366 ± 0.084 | 4.552 ± 0.071 | 3.899 ± 0.061 | 3.367 ± 0.053 | 2.93 ± 0.046
x2 = 0.801 | 902.61 ± 0.13 | 898.9 ± 0.13 | 895.17 ± 0.13 | 891.4 ± 0.13 | 887.6 ± 0.14 | 7.126 ± 0.11 | 5.932 ± 0.093 | 4.99 ± 0.078 | 4.238 ± 0.066 | 3.632 ± 0.057
x2 = 0.8927 | 908.08 ± 0.13 | 904.4 ± 0.13 | 900.68 ± 0.13 | 896.92 ± 0.13 | 893.12 ± 0.13 | 9.952 ± 0.16 | 8.189 ± 0.13 | 6.785 ± 0.11 | 5.705 ± 0.089 | 4.772 ± 0.075
